Common to all, as to assay: DTP human tumour cell line panel, 48 h
Test [1] relates to A498 renal.
Test [2] relates to ACHN renal.
The test system of test [3] is BT-549 breast.
In test [4] the test system is COLO 205 colon.
The test system of test [5] is HOP-62 NSCLC.
For test [6], the system named is OVCAR-3 ovarian.
Test [7] concerns RPMI-8226 leukemia.
Test [8] deals with SF-295 CNS.
Test [9] relates to SNB-75 CNS.
Test [10] has as its system UACC-257 melanoma.

Each structure is given as a SMILES string.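 Protocol summary: plate cells (96-well), add compound at 5 concentrations, incubate 48 h, interpolate endpoints linearly. GI50 is the concentration that inhibits growth by half. TGI denotes the concentration required for complete inhibition of growth.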 Some results are limits rather than exact numbers.

Consider `CC(=O)OCCC/C(=C/c1cc2ccccc2c2ccccc12)[N+](=O)[O-]`, for which the GI50 was 1.38 µM in test [1]; 1.64 µM in test [2]; 1.56 µM in test [3]; 1.67 µM in test [4]; 1.91 µM in test [5]; 0.814 µM in test [6]. Also, the GI50 was 1.27 µM in test [7], 0.977 µM in test [8], 0.606 µM in [9] and 1.43 µM in [10]. Also, the TGI worked out at 2.72 µM in test [1]; 3 µM in test [2]; 3.26 µM in test [3]; 3.03 µM in [4]; 3.5 µM in test [5]; 2.13 µM in test [6]. The TGI in test [7] was determined as 5.74 µM; in test [8], 2.32 µM; in test [9] it was 2.17 µM; in test [10], 2.76 µM.
Take `NC(=O)/C=C/c1c[nH]c2nccnc12`: the concentration for total growth inhibition (TGI) in [1] is 12.5 µM; in test [2] it was above 53.6 µM; in [3] it was 8.09 µM; in [4], 3.27 µM; in test [5], 19.3 µM; in test [6] it was above 39.5 µM. The TGI in [7] was above 100 µM; in [8], 28.9 µM; in [9] it was 4.46 µM; in test [10], 52.8 µM.
Consider `COC(=O)C[C@@H]1CC=CC(=O)/C1=C(O)/C=C/c1ccccc1`, for which the GI50 in test [1] was 1.87 µM; in test [2] it was 0.268 µM; in test [3], 1.48 µM; in test [4], 0.401 µM; in test [5], 0.56 µM; in [6], 0.3 µM. Also, the GI50 in test [7] was 0.303 µM; in test [8], 2.05 µM; in test [9], 1.05 µM; in test [10], 1.34 µM. For the same compound, the TGI amounted to 3.82 µM in test [1]; 0.743 µM in test [2]; 2.86 µM in [3]; 1.46 µM in test [4]; 1.86 µM in test [5]; 0.93 µM in [6]. Besides, the TGI in test [7] was 1.34 µM; in [8], 4.42 µM; in test [9] it was 3.21 µM; in test [10], 2.86 µM.
Turning to `Nc1ccccc1-n1c2c(c3ccccc3c1=O)C(=O)c1ccccc1-2`, the TGI was above 100 µM in test [1]; 18.3 µM in [2]; 12.9 µM in test [3]; above 100 µM in [4]; 22.9 µM in [5]; 55.1 µM in [6]. The TGI in test [7] was above 100 µM; in test [8] it was 40.1 µM; in test [9], above 100 µM; in test [10], above 100 µM.
With `C=C(C)[C@@H]1CC[C@]2(COC(=O)c3ccccc3C(=O)O)CC[C@]3(C)[C@H](CC[C@@H]4[C@@]5(C)CC[C@H](OC(=O)c6ccccc6C(=O)O)C(C)(C)[C@@H]5CC[C@]43C)[C@@H]12`, the GI50 in test [1] was 40.6 µM; in test [2] it was 28 µM; in [3], 33.3 µM; in test [4], above 100 µM; in [5], 21.8 µM; in [6] it was 17.5 µM. In addition, the GI50 is 14.8 µM in test [7], 24.1 µM in test [8], 15.4 µM in test [9] and 71.3 µM in test [10]. The TGI in test [1] is above 100 µM; in [2] it was above 100 µM; in [3] it was above 100 µM; in test [4] it was above 100 µM; in [5] it was 54.2 µM; in test [6] it was 49.3 µM. Besides, the TGI in test [7] is above 100 µM; in test [8], above 100 µM; in test [9] it was 36 µM; in test [10], above 100 µM.
`CCOC(=O)CC1C(CNC(=O)NC)OC(n2cnc3c(NC(=O)Nc4ccccc4)ncnc32)C1O[Si](C)(C)C(C)(C)C` (stereo not given): the GI50 is 3.35 µM in [1]; 8.55 µM in test [2]; above 100 µM in test [3]; 3.84 µM in test [4]; 8.96 µM in test [5]; 4.59 µM in test [6]. Further, the GI50 in test [7] was 1.09 µM; in test [8] it was 5.73 µM; in test [9], 4.56 µM; in [10] it was 5.68 µM. The TGI was 17.1 µM in test [1]; above 100 µM in test [2]; above 100 µM in test [3]; above 100 µM in test [4]; 26.4 µM in test [5]; 17.2 µM in test [6]. Besides, the TGI in test [7] was 4.57 µM; in [8] it was above 100 µM; in test [9], above 100 µM; in test [10] it was above 100 µM.
For `O=C(Oc1c(Cl)c(Cl)c(Cl)c(Cl)c1Cl)C1CCCN1C(=O)OCc1ccccc1` (stereo not given), the GI50 in test [1] is 1.99 µM; in test [2] it was 2.62 µM; in [3], 3.75 µM; in test [4], 2.01 µM; in test [5] it was 3.45 µM; in [6] it was 3.27 µM. Further, the GI50 was 2.45 µM in test [7], 2.75 µM in [8], 2.66 µM in test [9] and 4.29 µM in test [10]. Also, the TGI in [1] came out at 5.81 µM; in [2], 8.09 µM; in test [3] it was 13.1 µM; in test [4], 3.88 µM; in test [5] it was 14.9 µM; in test [6] it was 9.84 µM. Further, the TGI in test [7] worked out at 6.83 µM; in [8] it was 8.47 µM; in test [9], 10.2 µM; in [10], 17.7 µM.
For the compound `COc1ccc2c(ccc3oc([N+](=O)[O-])cc32)c1`, the GI50 in test [1] was 0.0852 µM; in [2], 0.0274 µM; in test [3], 0.187 µM; in [4], 0.172 µM; in [5] it was 0.412 µM; in test [6] it was 0.225 µM. Moreover, the GI50 was 0.247 µM in test [7], 0.302 µM in test [8], 0.201 µM in [9] and 0.137 µM in test [10]. The TGI in [1] worked out at 0.305 µM; in test [2] it was 0.232 µM; in test [3], 0.521 µM; in test [4] it was 0.389 µM; in test [5], 2.48 µM; in test [6] it was 0.57 µM. For the same compound, the TGI is 0.81 µM in test [7], 1.9 µM in test [8], 0.573 µM in [9] and 0.43 µM in test [10].

The GI50 is the concentration at which growth is held to half of that of the control. For orientation: TGI means the concentration giving total growth inhibition. High values mean less potent growth arrest, low ones more potent growth arrest.

The record behind these values is PubChem BioAssay (NCI).
